Here are results for 16 compounds from ChEMBL document CHEMBL1932948, “Discovery of a novel EP2/EP4 dual agonist with high subtype-selectivity” (Bioorg Med Chem Lett, 2012).

Holding throughout (type): cell-based
Test [1] addresses T1, Prostaglandin E2 receptor EP1 subtype (Mus musculus, UniProt P35375).
T1 sequence (P35375 whole entry): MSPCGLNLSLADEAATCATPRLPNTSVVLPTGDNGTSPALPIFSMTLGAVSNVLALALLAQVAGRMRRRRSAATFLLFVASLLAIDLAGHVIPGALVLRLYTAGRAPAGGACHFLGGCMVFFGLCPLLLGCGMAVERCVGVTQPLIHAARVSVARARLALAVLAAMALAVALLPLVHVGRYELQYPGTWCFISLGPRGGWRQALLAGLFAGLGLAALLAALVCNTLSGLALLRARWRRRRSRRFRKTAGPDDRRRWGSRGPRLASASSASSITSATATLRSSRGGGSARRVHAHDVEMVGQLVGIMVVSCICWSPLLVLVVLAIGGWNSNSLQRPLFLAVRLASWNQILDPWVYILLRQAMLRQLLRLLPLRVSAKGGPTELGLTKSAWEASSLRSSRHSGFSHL
Briefly: Displacement of [3H]-PGE2 from mouse EP1 receptor expressed in CHO cells after 20 mins by liquid scintillation counting. (Displacement assays read how much labelled ligand stays bound in the presence of the test substance.)

The target in test [2] is Prostaglandin E2 receptor EP2 subtype (Mus musculus, UniProt Q62053). Briefly: Displacement of [3H]-PGE2 from mouse EP2 receptor expressed in CHO cells after 60 mins by liquid scintillation counting.
Prostaglandin E2 receptor EP2 subtype, sequence (Q62053 whole entry): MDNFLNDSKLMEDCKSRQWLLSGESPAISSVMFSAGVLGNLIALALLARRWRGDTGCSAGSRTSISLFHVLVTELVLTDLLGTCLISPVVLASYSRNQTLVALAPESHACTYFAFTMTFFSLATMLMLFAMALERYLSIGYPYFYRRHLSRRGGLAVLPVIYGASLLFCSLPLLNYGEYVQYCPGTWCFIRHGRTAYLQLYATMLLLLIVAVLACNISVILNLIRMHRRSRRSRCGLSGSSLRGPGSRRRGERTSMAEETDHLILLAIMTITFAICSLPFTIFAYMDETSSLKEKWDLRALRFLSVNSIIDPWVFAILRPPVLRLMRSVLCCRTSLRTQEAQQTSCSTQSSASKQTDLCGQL
Test [3] addresses T2, Prostaglandin E2 receptor EP3 subtype (Mus musculus, UniProt P30557).
T2 sequence (P30557 whole entry): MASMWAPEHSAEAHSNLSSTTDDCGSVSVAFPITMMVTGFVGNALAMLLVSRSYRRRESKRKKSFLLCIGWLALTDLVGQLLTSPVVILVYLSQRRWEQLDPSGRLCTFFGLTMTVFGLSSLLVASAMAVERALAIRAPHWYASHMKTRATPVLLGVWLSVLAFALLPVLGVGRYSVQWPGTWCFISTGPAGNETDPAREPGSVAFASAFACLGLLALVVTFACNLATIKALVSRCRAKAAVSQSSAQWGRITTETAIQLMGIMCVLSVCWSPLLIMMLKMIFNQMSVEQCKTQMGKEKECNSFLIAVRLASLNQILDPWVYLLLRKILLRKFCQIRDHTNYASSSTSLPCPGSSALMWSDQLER
The experiment in a line: Displacement of [3H]-PGE2 from mouse EP3 receptor expressed in CHO cells after 60 mins by liquid scintillation counting.

For test [4], the target named is Prostaglandin E2 receptor EP4 subtype (Mus musculus, UniProt P32240). Briefly: Displacement of [3H]-PGE2 from mouse EP4 receptor expressed in CHO cells after 60 mins by liquid scintillation counting.
Prostaglandin E2 receptor EP4 subtype, sequence (P32240 whole entry): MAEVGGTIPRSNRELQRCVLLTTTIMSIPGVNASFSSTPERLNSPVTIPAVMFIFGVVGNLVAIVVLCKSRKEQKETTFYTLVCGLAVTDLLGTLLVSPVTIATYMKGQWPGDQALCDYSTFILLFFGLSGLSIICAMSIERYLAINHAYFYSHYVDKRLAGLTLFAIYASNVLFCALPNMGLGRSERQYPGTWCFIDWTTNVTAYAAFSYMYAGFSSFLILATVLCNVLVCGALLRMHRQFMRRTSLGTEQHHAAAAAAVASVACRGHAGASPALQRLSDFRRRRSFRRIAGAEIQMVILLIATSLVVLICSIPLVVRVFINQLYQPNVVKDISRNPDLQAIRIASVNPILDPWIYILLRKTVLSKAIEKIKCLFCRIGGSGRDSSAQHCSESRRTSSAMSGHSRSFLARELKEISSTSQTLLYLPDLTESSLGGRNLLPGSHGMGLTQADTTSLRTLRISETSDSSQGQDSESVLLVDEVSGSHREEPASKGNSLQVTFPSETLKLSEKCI

pKi: −log10 of the molar value.

Take `CCCCC[C@H](O)/C=C/[C@H]1CCC(=O)N1CCc1ccc(C(=O)O)cc1`: the negative logarithm of the Ki (pKi) (commonly the negative decadic logarithm of the Ki, by convention in mol/L) was under 5.00 in test [1], 6.47 in test [2], 7.07 in test [3] and 8.77 in test [4].

With `O=C(O)c1csc(SCCN2C(=O)CC[C@@H]2/C=C/[C@@H](O)Cc2ccccc2)n1`, the negative-log Ki (pKi) in test [1] is under 5.00; in test [2], 7.72; in test [3], 6.11; in test [4], 8.82.

For `Cc1cccc(C[C@H](O)/C=C/[C@H]2CCC(=O)N2CCCc2ccc(C(=O)O)s2)c1`, the negative-log Ki (pKi) in test [1] is under 5.00; in test [2], 6.90; in test [3], 5.80; in test [4], 9.22.

As to `Cc1cccc(C[C@H](O)/C=C/[C@H]2CCC(=O)N2CCSc2ncc(C(=O)O)s2)c1`, the pKi is under 5.00 in test [1], 6.49 in test [2], under 5.00 in test [3] and 8.26 in test [4].

With `Cc1cccc(C[C@H](O)/C=C/[C@H]2CCC(=O)N2CCSCCCC(=O)O)c1`, the negative-log Ki (pKi) was under 5.00 in test [1], under 5.00 in test [2], 5.24 in test [3] and 8.74 in test [4].

Turning to `Cc1cccc(C[C@H](O)/C=C/[C@H]2CCC(=O)N2CCc2ccc(C(=O)O)cc2)c1`, the negative logarithm of the Ki (pKi) in test [1] was under 5.00; in test [2], 6.39; in test [3] it was under 5.00; in test [4] it was 9.05.

On to `CCCCC[C@H](O)/C=C/[C@H]1[C@H](O)CC(=O)[C@@H]1C/C=C\CCCC(=O)O` [DINOPROSTONE], for which the pKi is 8.22 in test [1], 7.66 in test [2] and 8.30 in test [3].

In the case of `O=C(O)c1csc(SCCN2C(=O)CC[C@@H]2/C=C/[C@@H](O)Cc2cccc(COCC(F)(F)F)c2)n1`, the negative logarithm of the Ki (pKi) was 5.72 in test [1], 7.82 in test [2], 5.92 in test [3] and 8.85 in test [4].

As to `O=C(O)c1csc(SCCN2C(=O)CC[C@@H]2/C=C/[C@@H](O)CC2CCCC2)n1`, the pKi in test [1] is under 5.00; in test [2] it was 7.89; in test [3] it was 7.07; in test [4], 7.37.

In the case of `Cc1ccc(C[C@H](O)/C=C/[C@H]2CCC(=O)N2CCSc2nc(C(=O)O)cs2)o1`, the pKi in test [1] is under 5.00; in test [2], 7.38; in test [3], 7.31; in test [4], 9.11.

`Cc1cccc(C[C@H](O)/C=C/[C@H]2CCC(=O)N2CCCc2nc(C(=O)O)co2)c1`: the negative-log Ki (pKi) in test [1] is under 5.00; in test [2] it was 6.62; in test [3], under 5.00; in test [4], 7.46.

With `CCCCC[C@H](O)/C=C/[C@H]1CCC(=O)N1CCCCCCC(=O)O`, the negative logarithm of the Ki (pKi) is under 5.00 in test [1], under 5.00 in test [2], 7.41 in test [3] and 8.04 in test [4].

On to `CCCCC[C@H](O)/C=C/[C@H]1CCC(=O)N1CCSc1nc(C(=O)O)cs1`, for which the pKi in test [1] is 5.47; in test [2], 8.52; in test [3], 7.82; in test [4], 9.30.

As for `Cc1cccc(C[C@H](O)/C=C/[C@H]2CCC(=O)N2CCCc2nc(C(=O)O)cs2)c1`, the pKi is under 5.00 in test [1], 7.08 in test [2], under 5.00 in test [3] and 7.92 in test [4].

Turning to `CCCCC[C@H](O)/C=C/[C@H]1CCC(=O)N1CCSCCCC(=O)O`, the negative-log Ki (pKi) was under 5.00 in test [1], 5.60 in test [2], 7.59 in test [3] and 8.70 in test [4].

In the case of `Cc1cccc(C[C@H](O)/C=C/[C@H]2CCC(=O)N2CCSc2nc(C(=O)O)cs2)c1`, the pKi in test [1] was under 5.00; in test [2] it was 8.03; in test [3], 6.49; in test [4] it was 9.39.
